Reference: patent publication US4201725A, “Secondary amines” (priority 1974, dated 1980)
“Also recorded” adds a separate entry of the source. Read-outs that look alike come from different tables or passages of the source.

Experiments:
[1] = test system: reserpine-induced catatonia; experiment: Inhibition of reserpine-induced catatonia (preventive, oral compound 30 min before reserpine); assay type: in vivo, rat (male, OFA strain); conditions: rat, in vivo
Method: After sufficient doses of reserpine have been administered to the rat, a series of symptoms occur, more particularly ptosis, catatonia and a drop in central temperature. These symptoms are caused by the depletion of the intragranular reserve pool of biogenetic amines at the synaptic terminals.
An oral dose of the compound to be studied in aqueous solution was administered to batches of 10 male rats of the OFA strain weighing about 150 to 200 g. Thirty minutes later a dose of 5 mg/kg of reserpine was given by intraperitoneal route. Three hours after the injection of reserpine, the animals were suspended by the four paws to a horizontally stretched wire fixed at 15 cm from the ground. The catatonia animals were those which maintained the position so given for at least 30 seconds. […] The maximum score was therefore 10 per batch. An identical trial was undertaken with control animals which received reserpine but none of the compounds being studied.

catalepsy = experiment: Prochlorperazine-induced catalepsy (crossing of homolateral paws); assay type: in vivo, rat; conditions: 5 mg/kg oral 30 min before prochlorperazine i.p.; 3 h after injection
Method: Additional trials were carried out on rats with Compound 1 and amantadine. These trails involved catalepsy as evidenced by the crossing of the animal's homolateral paws.

[2] = test system: reserpine-induced catatonia; experiment: Suppression of reserpine-induced catatonia (curative treatment); assay type: in vivo, rat (male, OFA strain); conditions: 2.5 and 5 mg/kg oral vs 80 mg/kg amantadine
Method: Batches of 5 male rats of the OFA strain, weighing 150 to 200 g were given 5 mg/kg of reserpine by intraperitoneal route. One hour and 45 minutes later, namely when the animals were in a state of catatonia, an aqueous dose of the compound to be studied was administered by oral route to all the animals with the exception of the control group.
The progress of the catatonia was then noted following the scale used in the tests described hereabove.
The maximum score was thus 5 per batch which means that all the animals of the batch were considered to be still in a state of catatonia.

[3] = test system: neuroleptic-induced catatonia; experiment: Suppression of neuroleptic (prochlorperazine)-induced catatonia (curative treatment); assay type: in vivo, rat (male, OFA strain); conditions: 5 mg/kg vs 80 mg/kg amantadine
Method: Batches of 5 male rats of the OFA strain were given 12.5 mg/kg of prochlorperazine by intraperitoneal route. Fifty-five minutes later, an oral dose in aqueous solution of the compound to be studied was administered to all the animals with the exception of the control group. The progress of the catatonia was noted following the same scale as that used in the tests described above.

[4] = test system: isolated duodenum of the rat; experiment: MAGNUS test: cholinolytic/spasmolytic activity on acetylcholine spasm in vitro
Source text: This test consists in determining the dose of acetylcholine which, when added to the bath, provokes spasm of the isolated duodenum of the rat. The next step consists in determining the dose of the compound under study which, when added to the bath 30 seconds before the acetylcholine, reduces the spasm.

[5] = test system: cholinergic effects of tremorine; experiment: Anti-tremorine test in vivo; set-up: species or system mice (male, OF1 strain)
Method: When injected into mice, tremorine produces peripheral effects i.e. weeping, sweating, salivation and diarrhoea and central effects i.e. tremor and akinesia. Such effects are due to an increase in the amount of intracerebral acetylcholine and serotonine.
[…] Thirty minutes later a dose of 10 mg/kg of tremorine was injected by intraperitoneal route and, at different times after this injection, note was taken of the cholinergic effects on each animal in accordance with the following scale:

[6] = Spasmolytic activity in vivo; conditions: at antiparkinson doses, well below the toxic dose
[7] = SPERBER et al., J. Amer. Chem. Soc., 71, 3352 (1949); cited from earlier work
[8] = SPERBER et al., J. Amer. Chem. Soc., 71, 3352 (1949); cited from earlier work; remark: listed apart in the source
[9] = test system: arterial pressure and nictitating membrane (norepinephrine); experiment: Influence on peripheral noradrenergic phenomena (norepinephrine, anaesthetized cat); conditions: for Contractile reaction of the nictitating membrane without electric stimulation: at 0 mg/kg: 0; for Contractile reaction of the nictitating membrane with electric stimulation: at 0 mg/kg: Compound 1 17, amantadine 20; for Increase in arterial pressure after injection of norepinephrine: at 0 mg/kg: Compound 1 26, amantadine 28
Method: A cat, anaesthetized with pentobarbital, received a sufficient dose of norepinephrine to increase arterial pressure but not sufficient to cause contraction of the nictitating membrane. Arterial pressure was measured at the carotid immediately after administration of the dose of norepinephrine.

## CCCC(N)(CCC)CCC [Compound 1]
[1]
  activity in pharmacological trials (in words): marked degree of activity
catalepsy
  inhibition of the catalepsy: complete inhibition of the catalepsy
[2]
  suppression of reserpine-induced catatonia (in words): suppresses reserpine-induced catatonia more rapidly than a dose of 80 mg/kg of amantadine
[3]
  action against neuroleptic-induced catatonia (in words): acts against neuroleptic-induced catatonia more rapidly than does a dose of 80 mg/kg of amantadine
[4]
  spasmolytic / cholinolytic activity in vitro (in words): virtually non-existent in comparison with that of atropine; also recorded: extremely weak cholinolytic action
[4]; listed as tri-n-propylmethylamine
  spasmolytic / cholinolytic activity in vitro (in words): very weak, in fact practically non-existent
[5]; 5 mg/kg Compound 1, 40 mg/kg amantadine
  antitremorine properties (in words): devoid of antitremorine properties
[5]; 5 mg/kg oral, identical to the peripheral score of 4
  central cholinergic effects (normal and provoked tremor): Identical results
[5]; therapeutic doses
  cholinolytic properties in vivo (in words): absence of cholinolytic properties
[6]
  spasmolytic activity in vivo (in words): non-existent
[7]
  spasmolytic activity (in words): less spasmolytic
[8]
  toxicity (in words): more toxic than the corresponding trialkylethylamines
[9]; cat, i.v.
  potentiation of norepinephrine / peripheral adrenergic effects (in words): does not potentiate the effects either of exogenous norepinephrine or of endogenous norepinephrine
[9]; cumulative dose 0.1 mg/kg i.v.
  Contractile reaction of the nictitating membrane without electric stimulation: 0 mm
  Contractile reaction of the nictitating membrane with electric stimulation: 15 mm
  Increase in arterial pressure after injection of norepinephrine: 18 mm Hg
[9]; cumulative dose 1 mg/kg i.v.
  Contractile reaction of the nictitating membrane without electric stimulation: 0 mm
  Contractile reaction of the nictitating membrane with electric stimulation: 16 mm
  Increase in arterial pressure after injection of norepinephrine: 25 mm Hg
[9]; cumulative dose 3 mg/kg i.v.
  Contractile reaction of the nictitating membrane without electric stimulation: 0 mm
  Contractile reaction of the nictitating membrane with electric stimulation: 17 mm
  Increase in arterial pressure after injection of norepinephrine: 29 mm Hg
[9]; cumulative dose 5 mg/kg i.v.
  Contractile reaction of the nictitating membrane without electric stimulation: 0 mm
  Contractile reaction of the nictitating membrane with electric stimulation: 16 mm
  Increase in arterial pressure after injection of norepinephrine: 25 mm Hg
[9]; cumulative dose 10 mg/kg i.v.
  Contractile reaction of the nictitating membrane without electric stimulation: 0 mm
  Contractile reaction of the nictitating membrane with electric stimulation: 12 mm
  Increase in arterial pressure after injection of norepinephrine: 22 mm Hg
